# Test results taken from US20060233709A1, “Method for identifying novel treatments of inflammatory disease in the gut” (priority 2003, published 2006).
# “Also recorded” adds a separate entry of the source.
# Legend:
# [1] = system: zebrafish larvae with PSA-induced IBD; assay: Histology (haematoxylin and eosin sections) of gut in PSA-induced IBD; format: in vivo
# [2] = system: zebrafish larvae with PSA-induced IBD; assay: In vivo examination of gut architecture and motility (quercetin labelling) in PSA-induced IBD; details: for Rescue of the IBD phenotype: IBD induced with PSA 3 to 5 d.p.f., drug added with PSA from 5 d.p.f.
# zebrafish = assay: DMSO tolerance of zebrafish; details: in vivo
# Source text: Moreover, the inventors have discovered that zebrafish are also DMSO (dimethyl sulphoxide) tolerant. This is important as DMSO is used as a solvent to dissolve many drugs. The inventors have established that zebrafish can tolerate 1% DMSO. Thus, a candidate drug or other test substance may be dissolved in DMSO and administered to zebrafish by adding to the fish water to give a final concentration of DMSO of at least up to 1%. This is employed in various preferred aspects and embodiments of the present invention.
# TNFα = details: co-administration with PSA from 3 to 8 d.p.f.
# zebrafish larvae = assay: Suitability of fluorescent stains for in vivo gut visualisation
# Protocol: In vivo labelling was achieved by rearing fish in a suspension of 0.05% quercetin (Sigma) for a minimum of 2 hours. To observe gut architecture and motility, larvae were anaesthetised larvae by immersion in 0.2 mg/ml 3-amino benzoic acid ethylester (MS222) (Sigma). Gut architecture and motility can be observed using the FITC and GFP filter sets.
# Visualisation is achieved by the administration of a fluorescent dye to the embryo medium. The dye is swallowed by the fish but not readily absorbed and therefore fills the entire gut.
# When viewed under a fluorescent microscope, the crypts and villi of the gut were apparent as the unstained tissue of the gut wall was highlighted in contrast to the fluorescent medium that filled the gut lumen. In addition, as staining can be performed in vivo, waves of peristalsis were observed (as indicated in the different positions of the gut wall).
smiles,measurement,setting,value
"Nc1ccc(O)c(C(=O)O)c1 [5-ASA, 5-amino salicylic acid]",Effect when administered after the induction of disease changes,[1]; drug given after PSA induction,effective when administered after the induction of disease changes
same,Prevention/rescue of disease changes when co-administered with PSA,"[1]; effective dose co-administered with PSA, histological analysis",able to prevent/rescue disease changes
same,Rescue of the IBD phenotype,[2],Rescue of the IBD phenotype was seen
same,Rescue of the IBD phenotype,[2]; listed as salicylic acid,rescue of the disease phenotype
"C[S+](C)[O-] [DMSO, dimethyl sulphoxide]",Tolerated DMSO concentration in fish water,zebrafish,1%
O=C1CCC(N2C(=O)c3ccccc3C2=O)C(=O)N1 (stereo not drawn) [thalidomide],Rescue / improvement in gut histology,[1]; co-administration with PSA from 3 to 8 d.p.f.,failed to show improvement; also recorded: neither rescues the disease changes
same,TNFα expression,TNFα,down-regulation of TNFα expression
same,Rescue of the in vivo disease phenotype,"[2]; co-administration with PSA from 3 to 8 d.p.f., observed at 8 d.p.f.",failed to rescue the in vivo disease phenotype; also recorded: neither rescues the disease changes
O=c1c(O)c(-c2ccc(O)c(O)c2)oc2cc(O)cc(O)c12 [quercetin],Toxicity as in vivo gut stain,zebrafish larvae,low toxicity
